The supplement of paper PMC8967900

What was measured:
Experiment in all cases: selective drug sensitivity score (sDSS, relative to normal bone marrow) (sDSS (score)); higher = more potent and effective on the cell line relative to normal bone marrow cells
Details in all cases: 72 h
CCRF-HSB2 = system: CCRF-HSB2
COG-LL-355h = system: COG-LL-355h
COG-LL-394h = system: COG-LL-394h
DND-41 = system: DND-41
HAL-01 = system: HAL-01
KASUMI-10 = system: KASUMI-10
KASUMI-2 = system: KASUMI-2
KASUMI-9 = system: KASUMI-9
KOPN-8 = system: KOPN-8
MHH-CALL-3 = system: MHH-CALL-3
MOLT-16 = system: MOLT-16
MOLT-4 = system: MOLT-4
NALL-1 = system: NALL-1
NALM-16 = system: NALM-16
PEER = system: PEER
PF-382 = system: PF-382
REH = system: REH
RPMI-8402 = system: RPMI-8402
SUP-B15 = system: SUP-B15
TANOUE = system: TANOUE
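Further: ALL cell lines in 384-well plates, five doses spanning 10,000-fold, each plate scaled between vehicle and 100 µmol/L benzalkonium chloride controls, sDSS an adapted area-under-curve metric.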

O=C(Nc1ccc2[nH]nc(-c3ccncc3)c2c1)[C@@H]1CCN(CC(=O)N2CCN(c3ccc(-c4ncccn4)cc3)CC2)C1 (top concentration 10000 nM)
selective drug sensitivity score (CCRF-HSB2): 3.26
selective drug sensitivity score (COG-LL-355h): 6.26
selective drug sensitivity score (COG-LL-394h): -0.14
selective drug sensitivity score (DND-41): 4.46
selective drug sensitivity score (HAL-01): 0.06
selective drug sensitivity score (KASUMI-10): -0.74
selective drug sensitivity score (KASUMI-2): 6.16
selective drug sensitivity score (KASUMI-9): 0.36
selective drug sensitivity score (KOPN-8): 12.9
selective drug sensitivity score (MHH-CALL-3): 7.16
selective drug sensitivity score (MOLT-16): 1.06
selective drug sensitivity score (MOLT-4): -3.04
selective drug sensitivity score (NALL-1): -4.14
selective drug sensitivity score (NALM-16): -4.24
selective drug sensitivity score (PEER): 2.16
selective drug sensitivity score (PF-382): 0.56
selective drug sensitivity score (REH): 4.86
selective drug sensitivity score (RPMI-8402): -1.64
selective drug sensitivity score (SUP-B15): 12.6
selective drug sensitivity score (TANOUE): -4.64

O=C1CCc2c(Oc3ccc4c(c3)[C@@H]3[C@H](O4)[C@H]3c3nc4cc(C(F)(F)F)ccc4[nH]3)ccnc2N1 [Lifirafenib (BGB-283)] (top concentration 10000 nM)
selective drug sensitivity score (CCRF-HSB2): 8.88
selective drug sensitivity score (COG-LL-355h): 4.78
selective drug sensitivity score (COG-LL-394h): 6.88
selective drug sensitivity score (DND-41): 1.18
selective drug sensitivity score (HAL-01): 6.48
selective drug sensitivity score (KASUMI-10): 7.98
selective drug sensitivity score (KASUMI-2): 1.98
selective drug sensitivity score (KASUMI-9): 5.58
selective drug sensitivity score (KOPN-8): 13.1
selective drug sensitivity score (MHH-CALL-3): 0.68
selective drug sensitivity score (MOLT-16): 3.98
selective drug sensitivity score (MOLT-4): 1.38
selective drug sensitivity score (NALL-1): 8.28
selective drug sensitivity score (NALM-16): -0.02
selective drug sensitivity score (PEER): 10.7
selective drug sensitivity score (PF-382): 3.18
selective drug sensitivity score (REH): 3.48
selective drug sensitivity score (RPMI-8402): 2.28
selective drug sensitivity score (SUP-B15): 17
selective drug sensitivity score (TANOUE): 0.48

O=C(/C=C/c1cccc(S(=O)(=O)Nc2ccccc2)c1)NO [Belinostat] (top concentration 10000 nM)
selective drug sensitivity score (CCRF-HSB2): 10.2
selective drug sensitivity score (COG-LL-355h): 10.2
selective drug sensitivity score (COG-LL-394h): 2.1
selective drug sensitivity score (DND-41): 7.2
selective drug sensitivity score (HAL-01): 5.6
selective drug sensitivity score (KASUMI-10): 7.6
selective drug sensitivity score (KASUMI-2): 17.4
selective drug sensitivity score (KASUMI-9): 8.9
selective drug sensitivity score (KOPN-8): 17.8
selective drug sensitivity score (MHH-CALL-3): 17.5
selective drug sensitivity score (MOLT-16): 10.1
selective drug sensitivity score (MOLT-4): 7.6
selective drug sensitivity score (NALL-1): 2.4
selective drug sensitivity score (NALM-16): 2.5
selective drug sensitivity score (PEER): 7.8
selective drug sensitivity score (PF-382): 8.4
selective drug sensitivity score (REH): 5.1
selective drug sensitivity score (RPMI-8402): 7.3
selective drug sensitivity score (SUP-B15): 8.5
selective drug sensitivity score (TANOUE): -4.5

Cc1[nH]nc(C(F)(F)F)c1Cc1sc2c(c1C(=O)N1C[C@](C)(O)CO1)c(=O)n(C)c(=O)n2C(C)C [AZD3965] (top concentration 1000 nM)
selective drug sensitivity score (CCRF-HSB2): 0
selective drug sensitivity score (COG-LL-355h): 0
selective drug sensitivity score (COG-LL-394h): 0
selective drug sensitivity score (DND-41): 0
selective drug sensitivity score (HAL-01): 1
selective drug sensitivity score (KASUMI-10): 0
selective drug sensitivity score (KASUMI-2): 3.8
selective drug sensitivity score (KASUMI-9): 2.7
selective drug sensitivity score (KOPN-8): 0
selective drug sensitivity score (MHH-CALL-3): 0
selective drug sensitivity score (MOLT-16): 0
selective drug sensitivity score (MOLT-4): 0
selective drug sensitivity score (NALL-1): 3.8
selective drug sensitivity score (NALM-16): 0
selective drug sensitivity score (PEER): 0
selective drug sensitivity score (PF-382): 1.7
selective drug sensitivity score (REH): 3.6
selective drug sensitivity score (RPMI-8402): 12.6
selective drug sensitivity score (SUP-B15): 7.1
selective drug sensitivity score (TANOUE): 2.6

Nc1ccccc1NC(=O)c1ccc(CNC(=O)OCc2cccnc2)cc1 [Entinostat] (top concentration 10000 nM)
selective drug sensitivity score (CCRF-HSB2): 3.28
selective drug sensitivity score (COG-LL-355h): 1.98
selective drug sensitivity score (COG-LL-394h): -3.72
selective drug sensitivity score (DND-41): 1.28
selective drug sensitivity score (HAL-01): 2.58
selective drug sensitivity score (KASUMI-10): 3.68
selective drug sensitivity score (KASUMI-2): 7.68
selective drug sensitivity score (KASUMI-9): 8.28
selective drug sensitivity score (KOPN-8): 11.6
selective drug sensitivity score (MHH-CALL-3): 11.4
selective drug sensitivity score (MOLT-16): 6.58
selective drug sensitivity score (MOLT-4): 1.48
selective drug sensitivity score (NALL-1): -0.82
selective drug sensitivity score (NALM-16): 0.28
selective drug sensitivity score (PEER): 6.88
selective drug sensitivity score (PF-382): 2.08
selective drug sensitivity score (REH): 2.68
selective drug sensitivity score (RPMI-8402): 5.08
selective drug sensitivity score (SUP-B15): 7.08
selective drug sensitivity score (TANOUE): -8.52

CCN(CC)CCNC(=O)c1c(C)[nH]c(/C=C2\C(=O)Nc3ccc(F)cc32)c1C [Sunitinib] (top concentration 1000 nM)
selective drug sensitivity score (CCRF-HSB2): 1.36
selective drug sensitivity score (COG-LL-355h): 5.66
selective drug sensitivity score (COG-LL-394h): -0.34
selective drug sensitivity score (DND-41): -1.44
selective drug sensitivity score (HAL-01): 3.36
selective drug sensitivity score (KASUMI-10): 10.4
selective drug sensitivity score (KASUMI-2): -1.44
selective drug sensitivity score (KASUMI-9): 0.66
selective drug sensitivity score (KOPN-8): -1.44
selective drug sensitivity score (MHH-CALL-3): -1.44
selective drug sensitivity score (MOLT-16): -1.44
selective drug sensitivity score (MOLT-4): -0.94
selective drug sensitivity score (NALL-1): -1.44
selective drug sensitivity score (NALM-16): -1.04
selective drug sensitivity score (PEER): -0.24
selective drug sensitivity score (PF-382): -1.44
selective drug sensitivity score (REH): -1.44
selective drug sensitivity score (RPMI-8402): -1.24
selective drug sensitivity score (SUP-B15): 6.86
selective drug sensitivity score (TANOUE): -1.44

Nc1ccccc1NC(=O)c1ccc(CNc2nccc(-c3cccnc3)n2)cc1 [Mocetinostat] (top concentration 10000 nM)
selective drug sensitivity score (CCRF-HSB2): 3.94
selective drug sensitivity score (COG-LL-355h): 4.24
selective drug sensitivity score (COG-LL-394h): 2.74
selective drug sensitivity score (DND-41): 7.44
selective drug sensitivity score (HAL-01): 2.14
selective drug sensitivity score (KASUMI-10): 6.74
selective drug sensitivity score (KASUMI-2): 6.74
selective drug sensitivity score (KASUMI-9): 9.14
selective drug sensitivity score (KOPN-8): 9.24
selective drug sensitivity score (MHH-CALL-3): 12.4
selective drug sensitivity score (MOLT-16): 9.04
selective drug sensitivity score (MOLT-4): 5.24
selective drug sensitivity score (NALL-1): -3.16
selective drug sensitivity score (NALM-16): -0.46
selective drug sensitivity score (PEER): 9.24
selective drug sensitivity score (PF-382): 6.04
selective drug sensitivity score (REH): 3.94
selective drug sensitivity score (RPMI-8402): 6.34
selective drug sensitivity score (SUP-B15): 9.64
selective drug sensitivity score (TANOUE): -8.46

O=C(/C=C\n1cnc(-c2cc(C(F)(F)F)cc(C(F)(F)F)c2)n1)NNc1cnccn1 [Selinexor] (top concentration 10000 nM)
selective drug sensitivity score (CCRF-HSB2): 14.8
selective drug sensitivity score (COG-LL-355h): 11.9
selective drug sensitivity score (COG-LL-394h): 5.78
selective drug sensitivity score (DND-41): 14.6
selective drug sensitivity score (HAL-01): 9.08
selective drug sensitivity score (KASUMI-10): 3.78
selective drug sensitivity score (KASUMI-2): 16.7
selective drug sensitivity score (KASUMI-9): 7.98
selective drug sensitivity score (KOPN-8): 17.1
selective drug sensitivity score (MHH-CALL-3): 24.5
selective drug sensitivity score (MOLT-16): 13.9
selective drug sensitivity score (MOLT-4): 13.2
selective drug sensitivity score (NALL-1): 2.98
selective drug sensitivity score (NALM-16): 0.48
selective drug sensitivity score (PEER): 10.2
selective drug sensitivity score (PF-382): 9.78
selective drug sensitivity score (REH): 10.3
selective drug sensitivity score (RPMI-8402): 12.3
selective drug sensitivity score (SUP-B15): 16.3
selective drug sensitivity score (TANOUE): -7.02

O=C(CCCCCCNC(=O)c1cnc(N(c2ccccc2)c2ccccc2)nc1)NO [Rocilinostat] (top concentration 10000 nM)
selective drug sensitivity score (CCRF-HSB2): 6.54
selective drug sensitivity score (COG-LL-355h): 4.84
selective drug sensitivity score (COG-LL-394h): 3.74
selective drug sensitivity score (DND-41): 3.54
selective drug sensitivity score (HAL-01): -0.56
selective drug sensitivity score (KASUMI-10): 4.24
selective drug sensitivity score (KASUMI-2): 10.2
selective drug sensitivity score (KASUMI-9): 6.64
selective drug sensitivity score (KOPN-8): 13.8
selective drug sensitivity score (MHH-CALL-3): 14.5
selective drug sensitivity score (MOLT-16): 6.94
selective drug sensitivity score (MOLT-4): 5.04
selective drug sensitivity score (NALL-1): -0.66
selective drug sensitivity score (NALM-16): 3.34
selective drug sensitivity score (PEER): 7.14
selective drug sensitivity score (PF-382): 4.84
selective drug sensitivity score (REH): 6.04
selective drug sensitivity score (RPMI-8402): 4.64
selective drug sensitivity score (SUP-B15): 5.64
selective drug sensitivity score (TANOUE): -0.26
